The subject of test [1] is cultured cerebral cortex cells. The test is described as follows: Effect on nitrogen monoxide (NO)-induced neurotoxicity of cultured cerebral cortex cell (trypan blue survival). It counts as cell-based. The settings on record: test substance 10 μM simultaneously with S-nitrosocysteine 100 μM; percentage of living cells; sham 91.92, S-nitrosocysteine alone 17.30. Here is the method:
Effect of Atisane Derivative on Nitrogen Monoxide (NO)-induced Neurotoxicity of Cultured Cerebral Cortex Cell
(1) After dissolving the compound according to the present invention (test compound) in a small amount of methanol, 2.0 mL serum-free normal medium (Eagle's MEM medium raw powder 9.4 g; NaHCO3 2.0 g; […]; glucose 1.0 g; and HEPES 2.38 g are dissolved in purified water so that the final volume is 1000 mL) was added to make the concentration at 10 μM. After mixing well by vortex, the sample was used for the following bioassay. (2) In Eagle liquid at 37° C., cultured cerebral cortex cells were incubated in the medium containing S-nitrosocysteine for 1 hour. At this time, the test sample (1) was treated simultaneously with S-nitrosocysteine. After incubating for another 1 hour, the culture was stained with 1.5% trypan blue solution for 10 minutes. After completion of the staining, cells were fixed in ice-cooled 10% neutral-buffered formalin solution, rinsed with saline, and numbers of living cells and dead cells were counted. The test was conducted using 5 cover slips for every drug treatment, and one group contained 5 cases. More than 200 cells were counted per one cover slip, and a percentage of number of living cells with respect to the total number of counted cells was calculated as survival. (3) Results

In test [2] the test system is cultured cerebral cortex cells. The test is described as follows: Effect on glutamate-induced neurotoxicity of cultured cerebral cortex cell (trypan blue survival). The settings on record: test substance 10 μM, 1 h pre-incubation, then glutamic acid 500 μM for 1 h; percentage of living (trypan blue unstained) cells; sham 88.79, glutamic acid alone 26.72. The test is classed as cell-based. The method, then:
Effect of Atisane Derivative on Glutamate-induced Neurotoxicity of Cultured Cerebral Cortex Cell
Effects of the compounds according to the present invention on survival of cells were studied in the following manners.
(1) After dissolving the compound according to the present invention (test compound) in a small amount of methanol, 2.0 mL serum-free normal medium (Eagle's MEM medium raw powder 9.4 g; NaHCO3 2.0 g; L-glutamine 0.29 g; glucose 1.0 g; and HEPES 2.38 g are dissolved in purified water so that the final volume is 1000 mL) was added so as to make the concentration at 10 μM. After mixing well by vortex, the sample was used for the following bioassay. (2) In Eagle liquid at 37° C., cultured cerebral cortex cells were incubated in the medium containing the test sample (1) for 1 hour, and glutamic acid was added to the medium. After incubating for another 1 hour, the culture was stained with 1.5% trypan blue solution for 10 minutes. […] Using this property, in the present test, the number of cells were counted while determining the cells not having stained by trypan blue as living cells and the cells […] as dead cells. […] More than 200 cells were counted per one cover slip, and a percentage of number of living cells with respect to the total number of counted cells was calculated as survival. […]

The record followed here is patent US7211589B2, “Atisane compounds and use thereof” (Eisai R&D Management Co., Ltd., priority 2001, dated 2007).

Each structure is given as a SMILES string.

For `C[S+]([O-])C[C@H]1[C@H]2CC[C@@]3(CC[C@H]4[C@@](C)(CCC[C@@]4(C)C(=O)O)[C@@H]3C2)[C@@H]1O` (mixture of isomers) [Serofendic acid isomers (1), (2) (approx. 1:2) mixture, ent-15β-Hydroxy-17-methylsulfinyl-16α-atisane-19-oic acid], the Survival of cell in test [1] came to 76.02%; in test [2], 65.92%.
